Several values for one entry are separate records, joined by “and”; a condition that tells them apart may be missing. Equal values may be shown once.
Experiments:
[1] = cited from earlier work
[2] = Biodistribution of DRV administered via intravenous; format: in vivo; settings: Balb/c mice; for DRV accumulation cumulatively in the brain / DRV uptake cumulative in liver / DRV uptake cumulative in plasma / DRV accumulation cumulatively for all time points in plasma / DRV accumulation cumulatively for all time points in the brain / DRV concentration in liver (cumulative): cumulative 1, 3, 6, 12 h, mean ± S.E.M.; for concentration at 1 h: both, Balb/c, mouse, brain, other: intranasal (IN), DRV concentration in brain (Mean)

Increase of DRV accumulation in the brain, IN compared to IV delivery ([2]; 2.5 mg/kg, 1 h, p ≤ 0.05) [fold] | Increase of DRV accumulation in the brain, IN compared to IV delivery ([2]; 2.5 mg/kg, 3 h, p ≤ 0.05) [fold] | DRV accumulation cumulatively in the brain ([2]; 2.5 mg/kg, IN) | DRV uptake cumulative in liver ([2]; 2.5 mg/kg, IN) [ng/g] | DRV uptake cumulative in plasma ([2]; 2.5 mg/kg, IN) [ng/g] | DRV accumulation cumulatively in the brain ([2]; 2.5 mg/kg, IV) [ng/g] | DRV uptake cumulative in liver ([2]; 2.5 mg/kg, IV) [ng/g] | DRV uptake cumulative in plasma ([2]; 2.5 mg/kg, IV) [ng/g] | Lung DRV concentration, IN compared to IV ([2]; 2.5 mg/kg, individual or cumulative time points) | Increase of DRV accumulation in the brain, IN compared to IV delivery ([2]; 25 mg/kg, 1 h, p ≤ 0.001) [fold] | DRV accumulation cumulatively for all time points in plasma ([2]; 25 mg/kg, IN) [ng/g] | DRV accumulation cumulatively for all time points in the brain ([2]; 25 mg/kg, IN) | DRV concentration in liver (cumulative) ([2]; 25 mg/kg, IN) [ng/g] | DRV accumulation cumulatively for all time points in plasma ([2]; 25 mg/kg, IV) [ng/g] | DRV accumulation cumulatively for all time points in the brain ([2]; 25 mg/kg, IV) [ng/g] | DRV concentration in liver (cumulative) ([2]; 25 mg/kg, IV) [ng/g] | concentration at 1 h ([2]; 2.5 mg/kg, 2.5 mg/kg, IN, 1 h) [ng/g] | concentration at 1 h ([2]; 25 mg/kg, 25 mg/kg, IN, 1 h) [ng/g] | Structure (SMILES) | Brain to plasma ratio, IN compared to IV administration [1]
– | – | – | – | – | – | – | – | – | – | – | – | – | – | – | – | – | – | CN(C)CCCN=C(N)c1ccc(C(N)=NCCCN(C)C)cc1 [DB213] | significantly high tissue distribution in the brain to plasma ratio
~3 | ~2 | 12.08 ± 2.91 ng/g and ~12 ng/g | 29.27 ± 4.17 | 19.91 ± 12.65 | 6.91 ± 1.69 | 118.39 ± 28.13 | 81.37 ± 22.04 | did not significantly increase | ~2 | 320.56 ± 40.04 | 19.74 ± 1.80 ng/g and ~20 ng/g | 833.83 ± 242.4 | 899.12 ± 136.93 | 12.84 ± 2.88 | 1085.18 ± 255.0 | ~5 | ~12 | CC(C)CN(C[C@@H](O)[C@H](Cc1ccccc1)NC(=O)O[C@H]1CO[C@H]2OCC[C@H]21)S(=O)(=O)c1ccc(N)cc1 [DRV, Darunavir] | –

— paper PMC9747527 (Biochemistry and Biophysics Reports, 2022)
